Here are results for 12 compounds from ChEMBL document CHEMBL5352432, “Ad-hoc modifications of cyclic mimetics of SOCS1 protein: Structural and functional insights” (Eur J Med Chem, 2022).

Data set [1] deals with Tyrosine-protein kinase JAK2 (Homo sapiens, UniProt O60674). In words: Binding affinity to His-tagged JAK2 catalytic domain (826 to 1132 residues) (unknown origin) assessed as dissociation constant incubated for 30 mins by MST analysis.
Data set [2] can be described thus: Stability of the compound in fetal bovine serum incubated for 42 hrs by RP-HPLC analysis. It is filed as ADME, cell-free, Bos taurus. The following applies: cattle.
Data set [3] is described as follows: Proteolytic stability of the compound in fetal bovine serum assessed as drug degradation incubated for 42 hrs by RP-HPLC analysis. It is filed as ADME, cell-free, Bos taurus. The following applies: cattle.
Data set [4] in a line: Proteolytic stability of the compound in fetal bovine serum assessed as drug degradation incubated for 17 hrs by RP-HPLC analysis. It is filed as ADME, cell-free, Bos taurus. The note with it: cattle, read-out: Drug degradation.
A short description of data set [5]: Stability of the compound in fetal bovine serum assessed as drug degradation incubated for 17 hrs by RP-HPLC analysis. In kind it is ADME, cell-free, Bos taurus. The following applies: cattle, read-out: Drug degradation.
Data set [6] can be described thus: Stability of the compound in fetal bovine serum assessed as drug degradation incubated for 42 hrs by RP-HPLC analysis. It is filed as ADME, cell-free, Bos taurus. The note with it: cattle, read-out: Drug degradation.

Activity calls are given as the source filed them. The calls are words filed in the database; no cut-off is given here. Positions of bridges follow the written chain, without caps; N, C: chain ends. Non-standard residues stand in square brackets, D forms with d. Residues, ends and D or L forms follow the SMILES beside them. *: point of attachment. 1Nal = N[C@@H](Cc1cccc2ccccc12)C(=O)O; hArg = N=C(N)NCCCC[C@H](N)C(=O)O; Cit = NC(=O)NCCC[C@H](N)C(=O)O; Orn = NCCC[C@H](N)C(=O)O; Ac5c = NC1(C(=O)O)CCCC1; Dap = NC[C@H](N)C(=O)O; Acm = CC(=O)NC*

Chain of Tyrosine-protein kinase JAK2 (O60674 whole entry, the tested form may be a part): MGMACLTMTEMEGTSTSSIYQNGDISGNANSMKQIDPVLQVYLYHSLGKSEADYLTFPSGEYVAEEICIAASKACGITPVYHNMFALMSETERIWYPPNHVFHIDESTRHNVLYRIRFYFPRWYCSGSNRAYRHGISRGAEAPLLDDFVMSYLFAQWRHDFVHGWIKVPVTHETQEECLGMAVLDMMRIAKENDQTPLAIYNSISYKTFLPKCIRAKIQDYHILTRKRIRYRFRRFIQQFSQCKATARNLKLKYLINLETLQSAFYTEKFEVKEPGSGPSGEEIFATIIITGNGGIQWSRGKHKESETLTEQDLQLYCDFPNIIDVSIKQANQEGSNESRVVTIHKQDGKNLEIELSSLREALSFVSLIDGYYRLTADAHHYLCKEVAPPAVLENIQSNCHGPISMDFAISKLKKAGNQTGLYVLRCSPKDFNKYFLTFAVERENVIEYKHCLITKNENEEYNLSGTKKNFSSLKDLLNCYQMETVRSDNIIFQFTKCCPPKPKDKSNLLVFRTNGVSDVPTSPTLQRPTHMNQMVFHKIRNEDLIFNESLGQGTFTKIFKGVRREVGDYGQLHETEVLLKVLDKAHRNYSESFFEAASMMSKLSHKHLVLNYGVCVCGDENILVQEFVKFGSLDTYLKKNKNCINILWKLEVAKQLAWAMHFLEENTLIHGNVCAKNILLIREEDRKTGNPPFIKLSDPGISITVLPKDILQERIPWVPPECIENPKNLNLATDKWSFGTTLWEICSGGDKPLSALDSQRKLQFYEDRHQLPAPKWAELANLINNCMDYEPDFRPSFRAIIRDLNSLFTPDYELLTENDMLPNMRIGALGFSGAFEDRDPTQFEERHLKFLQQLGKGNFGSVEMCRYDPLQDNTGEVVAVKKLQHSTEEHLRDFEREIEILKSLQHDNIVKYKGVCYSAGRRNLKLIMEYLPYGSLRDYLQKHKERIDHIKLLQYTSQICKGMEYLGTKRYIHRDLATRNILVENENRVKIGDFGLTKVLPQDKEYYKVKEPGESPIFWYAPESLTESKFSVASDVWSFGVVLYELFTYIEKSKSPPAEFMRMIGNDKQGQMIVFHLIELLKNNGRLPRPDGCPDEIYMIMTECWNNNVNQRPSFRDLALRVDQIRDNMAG

A word on the Kd: it is the concentration at which binding is half-saturated. In the case of `CC(=O)NCSC[C@@H]1NC(=O)[C@H]([C@@H](C)O)NC(=O)[C@@H](NC(C)=O)CCC(=O)NC[C@@H](C(=O)N[C@@H](Cc2c[nH]cn2)C(=O)O)NC(=O)[C@H](CCCNC(=N)N)NC(=O)[C@H](Cc2cccc3ccccc23)NC(=O)[C@H]([C@@H](C)O)NC(=O)[C@H](CCC(N)=O)NC(=O)[C@H](CCCNC(=N)N)NC1=O` (Ac-ETC(Acm)RQT[1Nal]R[Dap]H-OH; lactam 1-9), in data set [1], the equilibrium dissociation constant (Kd) was 71 µM. In addition, the Stability entry in data set [2] is given as “Stable”.

In the case of `CC(=O)NCSC[C@@H]1NC(=O)[C@H]([C@@H](C)O)NC(=O)[C@@H](NC(C)=O)CC(=O)NCCCC[C@@H](C(=O)N[C@@H](Cc2c[nH]cn2)C(=O)O)NC(=O)[C@H](CCCNC(=N)N)NC(=O)[C@H](Cc2cccc3ccccc23)NC(=O)C2(CCCC2)NC(=O)[C@H](CCC(N)=O)NC(=O)[C@H](CCCNC(=N)N)NC1=O` (Ac-DTC(Acm)RQ[Ac5c][1Nal]RKH-OH; lactam 1-9), in data set [1], the Kd stood at 120 µM. The Stability entry in data set [3] is given as “Stable”.

As for `CC(=O)NCSC[C@@H]1NC(=O)C2(CCCC2)NC(=O)[C@@H](NC(C)=O)CC(=O)NCCCC[C@@H](C(=O)N[C@@H](Cc2c[nH]cn2)C(=O)O)NC(=O)[C@H](CCCNC(=N)N)NC(=O)[C@H](Cc2cccc3ccccc23)NC(=O)[C@H]([C@@H](C)O)NC(=O)[C@H](CCC(N)=O)NC(=O)[C@H](CCCNC(=N)N)NC1=O` (Ac-D[Ac5c]C(Acm)RQT[1Nal]RKH-OH; lactam 1-9), the equilibrium dissociation constant (Kd) in data set [1] amounted to 260 µM. In addition, the Stability entry in data set [3] is “Stable”.

In the case of `CC(=O)NCSC[C@@H]1NC(=O)[C@H]([C@@H](C)O)NC(=O)[C@@H](NC(C)=O)CC(=O)NC[C@@H](C(=O)N[C@@H](Cc2c[nH]cn2)C(=O)O)NC(=O)[C@H](CCCNC(=N)N)NC(=O)[C@H](Cc2cccc3ccccc23)NC(=O)[C@H]([C@@H](C)O)NC(=O)[C@H](CCC(N)=O)NC(=O)[C@H](CCCNC(=N)N)NC1=O` (Ac-DTC(Acm)RQT[1Nal]R[Dap]H-OH; lactam 1-9), the outcome in data set [1] was inactive. For the same compound, the Stability entry in data set [2] is on record as “Unstable”.

As to `CC(=O)NCSC[C@@H]1NC(=O)[C@H]([C@@H](C)O)NC(=O)[C@@H](NC(C)=O)CCCCNC(=O)C[C@@H](C(=O)N[C@@H](Cc2c[nH]cn2)C(=O)O)NC(=O)[C@H](CCCNC(=N)N)NC(=O)[C@H](Cc2cccc3ccccc23)NC(=O)[C@H]([C@@H](C)O)NC(=O)[C@H](CCC(N)=O)NC(=O)[C@H](CCCNC(=N)N)NC1=O` (Ac-KTC(Acm)RQT[1Nal]RDH-OH; lactam 1-9), in data set [1], the equilibrium dissociation constant (Kd) amounted to 160 µM. In addition, in data set [4], the metabolised at 17 h amounted to 100%.

For the compound `CC(=O)NCSC[C@@H]1NC(=O)[C@H]([C@@H](C)O)NC(=O)[C@@H](NC(C)=O)CC(=O)NCCCC[C@@H](C(=O)N[C@@H](Cc2c[nH]cn2)C(=O)O)NC(=O)[C@H](CCCNC(=N)N)NC(=O)[C@H](Cc2cccc3ccccc23)NC(=O)[C@H]([C@@H](C)O)NC(=O)[C@H](CCCN)NC(=O)[C@H](CCCNC(=N)N)NC1=O` (Ac-DTC(Acm)R[Orn]T[1Nal]RKH-OH; lactam 1-9), the dissociation constant (Kd) in data set [1] was found to be 32 µM. The metabolised at 17 h in data set [5] stood at 30%. Besides, the metabolised at 42 h in data set [6] was 100%.

For the compound `CC(=O)NCSC[C@@H]1NC(=O)[C@H]([C@@H](C)O)NC(=O)[C@@H](NC(C)=O)CC(=O)NCCCC[C@@H](C(=O)N[C@@H](Cc2c[nH]cn2)C(=O)O)NC(=O)[C@H](CCCNC(=N)N)NC(=O)[C@H](Cc2cccc3ccccc23)NC(=O)[C@H]([C@@H](C)O)NC(=O)[C@H](CCC(N)=O)NC(=O)[C@H](CCCNC(=N)N)NC1=O` (Ac-DTC(Acm)RQT[1Nal]RKH-OH; lactam 1-9), the dissociation constant (Kd) in data set [1] stood at 36 µM. In addition, in data set [5], the metabolised at 17 h came out at 30%.

Turning to `CC(=O)NCSC[C@@H]1NC(=O)[C@H]([C@@H](C)O)NC(=O)[C@@H](NC(C)=O)CC(=O)NCCCC[C@@H](C(=O)N[C@@H](Cc2c[nH]cn2)C(=O)O)NC(=O)[C@H](CCCNC(=N)N)NC(=O)[C@H](Cc2cccc3ccccc23)NC(=O)[C@H]([C@@H](C)O)NC(=O)[C@H](CCCNC(N)=O)NC(=O)[C@H](CCCNC(=N)N)NC1=O` (Ac-DTC(Acm)R[Cit]T[1Nal]RKH-OH; lactam 1-9), the Kd in data set [1] amounted to 36 µM. Besides, in data set [5], the metabolised at 17 h turned out to be 50%.

With `CC(=O)NCSC[C@@H]1NC(=O)[C@H]([C@@H](C)O)NC(=O)[C@@H](NC(C)=O)CCC(=O)NCCC[C@@H](C(=O)N[C@@H](Cc2c[nH]cn2)C(=O)O)NC(=O)[C@H](CCCNC(=N)N)NC(=O)[C@H](Cc2cccc3ccccc23)NC(=O)[C@H]([C@@H](C)O)NC(=O)[C@H](CCC(N)=O)NC(=O)[C@H](CCCNC(=N)N)NC1=O` (Ac-ETC(Acm)RQT[1Nal]R[Orn]H-OH; lactam 1-9), in data set [1], the outcome was inactive. In data set [2], the Stability result is “Unstable”.

As for `CC(=O)NCSC[C@@H]1NC(=O)[C@H]([C@@H](C)O)NC(=O)[C@@H](NC(C)=O)CC(=O)NCCCC[C@@H](C(=O)N[C@@H](Cc2c[nH]cn2)C(=O)O)NC(=O)[C@H](CCCCNC(=N)N)NC(=O)[C@H](Cc2cccc3ccccc23)NC(=O)[C@H]([C@@H](C)O)NC(=O)[C@H](CCCN)NC(=O)[C@H](CCCNC(=N)N)NC1=O` (Ac-DTC(Acm)R[Orn]T[1Nal][hArg]KH-OH; lactam 1-9), the Kd in data set [1] amounted to 39 µM. Further, the Stability result in data set [2] is on record as “Stable”.

As for `CC(=O)NCSC[C@@H]1NC(=O)[C@H]([C@@H](C)O)NC(=O)[C@@H](NC(C)=O)CCC(=O)NCCCC[C@@H](C(=O)N[C@@H](Cc2c[nH]cn2)C(=O)O)NC(=O)[C@H](CCCNC(=N)N)NC(=O)[C@H](Cc2cccc3ccccc23)NC(=O)[C@H]([C@@H](C)O)NC(=O)[C@H](CCC(N)=O)NC(=O)[C@H](CCCNC(=N)N)NC1=O` (Ac-ETC(Acm)RQT[1Nal]RKH-OH; lactam 1-9), the Kd in data set [1] is 52 µM. The Stability entry in data set [2] is listed as “Stable”.

For the compound `CC(=O)NCSC[C@@H]1NC(=O)[C@H]([C@@H](C)O)NC(=O)[C@@H](NC(C)=O)CC(=O)NCCCC[C@@H](C(=O)N[C@@H](Cc2c[nH]cn2)C(=O)O)NC(=O)[C@H](CCCCNC(=N)N)NC(=O)[C@H](Cc2cccc3ccccc23)NC(=O)[C@H]([C@@H](C)O)NC(=O)[C@H](CCCNC(N)=O)NC(=O)[C@H](CCCNC(=N)N)NC1=O` (Ac-DTC(Acm)R[Cit]T[1Nal][hArg]KH-OH; lactam 1-9), the Kd in data set [1] was found to be 31 µM. The Stability result in data set [2] is recorded as “Stable”.
